We go through 1 compound from US20180028553A1, “USE OF STING AGONIST AS CANCER TREATMENT” (The University of Chicago, priority 2013, published 2018).

Each structure is given as a SMILES string. Entries after “also recorded” stand apart in the source; their conditions may differ.

For one assay, the system named is IFN-β. The assay is described as follows: Murine IFN-β ELISA, macrophages and BM-DCs. The class given is cell-based, mouse. As to the method:
Murine IFN-β ELISA. […] Conditioned media were collected after 4 hours. IFN-β concentration was assessed using VeriKine™ Mouse Interferon Beta ELISA Kit (PBL interferon source).

Assay [1] concerns BM-DCs (CD40, CD86, MHC class II). As to the kind of experiment: Expression of activation markers on BM-DCs by flow cytometry. The class given is cell-based, mouse. The note with it: WT versus STING-deficient BM-DCs; DMXAA 25 μg/ml or LPS 100 ng/ml. As to the method:
Expression of activation markers by flow cytometry. […] Stained cells were analyzed using LSR II cytometer with FACSDiva software (BD) or FACSVerse with FACSuite software. Data analysis was conducted with FlowJo software (Tree Star).

The test system of assay [2] is five hSTING alleles (WT, REF, HAQ, AQ and Q). As to the kind of experiment: IFN-β luciferase reporter assay in HEK 293T cells expressing hSTING variants. The class given is cell-based, human. Conditions: 100 μg/ml DMXAA, 6 hours. As to the method: Luciferase Assay. […] After 20 min, stimulation mixtures were removed and normal media was added. After a total of 6 hours, cell lysates were prepared and reporter gene activity measured using the Dual Luciferase Assay System (Promega) on a Spectramax M3 luminometer.
A general note: In a reporter assay the amount or activity of a reporter protein is the signal.

Another assay concerns tumors. The note with it: background statement; cited from earlier work.

As for `Cc1ccc2c(=O)c3cccc(CC(=O)O)c3oc2c1C` [DMXAA, 5,6-dimethylXAA (xanthenone-4-acetic acid)], the IFN-β production result is “a high production of IFN-β” in the assay on IFN-β (BM-DC from WT versus STING^−/− mice, DMXAA); “only in WT macrophages; also recorded: not from STING^−/− macrophages” in the assay with IFN-β (STING^−/− macrophages, DMXAA 50 μg/ml); “high production of IFN-β; also recorded: IFN-β secretion was detected” in the assay on IFN-β (WT macrophages, DMXAA 50 μg/ml). In assay [1], the “induction of co-stimulatory molecules (CD40, CD86, MHC class II)” value is “upregulated activation markers such as CD40 and C86 in a STING dependent manner; also recorded: observed only in WT cells”. Also, in assay [2], the IFN-β reporter activation entry is reported as “failed to activate”. Moreover, in the assay with tumors, the “outcome of clinical trials for the treatment of tumors” value was “all failed”.
